Paper PMC8948406 (Journal for Immunotherapy of Cancer, 2022)
Like-named read-outs stand apart in the source and are kept apart here.

What was measured:
advanced solid tumors = settings: cited from earlier work
[1] = for Cmax, Clast and tmax versus other part and niraparib monotherapy: first dose
[2] = Dostarlimab serum pharmacokinetics; format: in vivo, human; settings: coadministration of niraparib, carboplatin–paclitaxel, or bevacizumab
[3] = biological target: PD-1 receptors on CD3+ T-cells (Homo sapiens, UniProt Q15116); experiment: PD-1 receptor occupancy by flow cytometry; format: cell-based; settings: by end of treatment; parts A, B and D
non-squamous NSCLC = settings: combination with chemotherapy; cited from earlier work

PD-1 receptors on CD3+ T-cells, sequence (Q15116 25-288): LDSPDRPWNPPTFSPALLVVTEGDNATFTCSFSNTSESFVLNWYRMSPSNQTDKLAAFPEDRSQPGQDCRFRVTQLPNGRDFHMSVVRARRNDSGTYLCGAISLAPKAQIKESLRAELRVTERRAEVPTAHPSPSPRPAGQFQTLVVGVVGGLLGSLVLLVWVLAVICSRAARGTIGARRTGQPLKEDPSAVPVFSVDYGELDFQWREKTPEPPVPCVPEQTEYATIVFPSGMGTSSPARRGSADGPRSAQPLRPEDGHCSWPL

In the case of NC(=O)c1cccc2cn(-c3ccc([C@@H]4CCCNC4)cc3)nc12 [niraparib, [3S]-3-[4-[7-(aminocarbonyl)-2H-indazol-2-yl]phenyl] piperidine], the “Variability of exposure, monotherapy data” value (advanced solid tumors) is given as “up to 66%”, the “Cmax lower in part C than in part A” value ([1]; 200 mg) is given as 47.1% and the “Exposures (Cmax and AUClast) versus monotherapy” value ([1]; 200 mg, part A) is given as “comparable to monotherapy”. The “AUClast higher in part C than in part A” value ([1]; 300 mg QD) was “approximately 46%”, the “AUClast lower than niraparib monotherapy” value ([1]; 300 mg, part A) was 9.6% and the “AUClast higher than niraparib monotherapy” value ([1]; 300 mg, part C) was 31.6%. For the same compound, the “Cmax, Clast and tmax versus other part and niraparib monotherapy” value ([1]; 300 mg) was “consistent across both parts and similar to PK data for niraparib monotherapy”, the “Cmax, Clast and tmax versus other part and niraparib monotherapy” value ([1]; 300 mg, listed as Niraparib) was “consistent in parts A and C” and the “Variability of niraparib exposure” value ([1]; regardless of dose and cohort) was ~ 50%.
With “dostarlimab: PD-1 inhibitor; IgG4 humanized monoclonal antibody that binds with high affinity to PD-1” the “Effect of the combination partners on dostarlimab PK” value [2] was “no observed impact” and the “Overall mean PD-1 receptor occupancy” value [3] was 99.0%.
In the case of “pembrolizumab: anti-PD-1 antibody, given with chemotherapy in the cited trials”, the “Grade ≥3 neutropenia” value (non-squamous NSCLC) is given as 15.8%.
